Consider 30 molecules from patent publication US11337976B2 (Plexxikon Inc., priority 2011, dated 2022).

A word on the IC50: it is the concentration that inhibits the measured activity by half. Read a low IC50 as greater potency in that assay.

This assay relates to A375 melanoma cells (B-Raf V600E mutation). In words: A375 (A375_P-ERK) cell activity / cell growth inhibition assay. The assay is classed as cell-based, human. As to conditions: Homo sapiens, A-375; A375 cells (text: A375_P-ERK).
`CCC(C)S(=O)(=O)Nc1cccc(C(=O)c2c[nH]c3ncc(-c4cnc(C(C)C)nc4)cc23)c1F` (stereo not drawn) [P-0229, N-[2-fluoro-3-[5-(2-isopropylpyrimidin-5-yl)-1H-pyrrolo[2,3-b]pyridine-3-carbonyl]phenyl]butane-2-sulfonamide]: the IC50 was below 1 µM.

`CCC(C)S(=O)(=O)Nc1cccc(C(=O)c2c[nH]c3ncc(-c4ccc(N(C)C)nc4)cc23)c1F` (stereo not drawn) [P-0230, N-[3-[5-[6-(dimethylamino)-3-pyridyl]-1H-pyrrolo[2,3-b]pyridine-3-carbonyl]-2-fluoro-phenyl]butane-2-sulfonamide] had an IC50 below 1 µM.

`CCC(C)S(=O)(=O)Nc1cccc(C(=O)c2c[nH]c3ncc(-c4cnc(C)nc4)cc23)c1F` (stereo not drawn) [P-0231, N-[2-fluoro-3-[5-(2-methylpyrimidin-5-yl)-1H-pyrrolo[2,3-b]pyridine-3-carbonyl]phenyl]butane-2-sulfonamide] yielded an IC50 below 1 µM.

The molecule `O=C(c1cccc(NS(=O)(=O)N2CCCC2)c1F)c1c[nH]c2ncc(-c3cnc(N4CCOCC4)nc3)cc12` [P-0235, N-[2-fluoro-3-[5-(2-morpholinopyrimidin-5-yl)-1H-pyrrolo[2,3-b]pyridine-3-carbonyl]phenyl]pyrrolidine-1-sulfonamide] came in with an IC50 below 1 µM.

The molecule `CCC(C)S(=O)(=O)Nc1cccc(C(=O)c2c[nH]c3ncc(-c4cnc(N5CCOCC5)nc4)cc23)c1F` (stereo not drawn) [P-0236, N-[2-fluoro-3-[5-(2-morpholinopyrimidin-5-yl)-1H-pyrrolo[2,3-b]pyridine-3-carbonyl]phenyl]butane-2-sulfonamide] came in with an IC50 below 1 µM.

`CN(C)S(=O)(=O)Nc1ccc(F)c(C(=O)c2c[nH]c3ncc(-c4ccc(C5(C#N)CC5)cc4)cc23)c1F` [P-0237, 5-[4-(1-cyanocyclopropyl)phenyl]-3-[3-(dimethylsulfamoylamino)-2,6-difluoro-benzoyl]-1H-pyrrolo[2,3-b]pyridine] came in with an IC50 below 1 µM.

`CN(C)S(=O)(=O)Nc1ccc(F)c(C(=O)c2c[nH]c3ncc(-c4cnc(C5CC5)nc4)cc23)c1F` [P-0238, 5-(2-cyclopropylpyrimidin-5-yl)-3-[3-(dimethylsulfamoylamino)-2,6-difluoro-benzoyl]-1H-pyrrolo[2,3-b]pyridine] showed an IC50 below 1 µM.

Molecule `CCN(C)S(=O)(=O)Nc1ccc(F)c(C(=O)c2c[nH]c3ncc(-c4ccc(C5(C#N)CC5)cc4)cc23)c1F` [P-0239, 5-[4-(1-cyanocyclopropyl)phenyl]-3-[3-[[ethyl(methyl)sulfamoyl]amino]-2,6-difluoro-benzoyl]-1H-pyrrolo[2,3-b]pyridine] came in with an IC50 below 1 µM.

Regarding `CCN(C)S(=O)(=O)Nc1ccc(F)c(C(=O)c2c[nH]c3ncc(-c4cnc(C5CC5)nc4)cc23)c1F` [P-0240, 5-(2-cyclopropylpyrimidin-5-yl)-3-[3-[[ethyl(methyl)sulfamoyl]amino]-2,6-difluoro-benzoyl]-1H-pyrrolo[2,3-b]pyridine], the IC50 is below 1 µM.

The molecule `O=C(c1c(F)ccc(NS(=O)(=O)N2CCCC2)c1F)c1c[nH]c2ncc(-c3cnc(C4CC4)nc3)cc12` [P-0241, N-[3-[5-(2-cyclopropylpyrimidin-5-yl)-1H-pyrrolo[2,3-b]pyridine-3-carbonyl]-2,4-difluoro-phenyl]pyrrolidine-1-sulfonamide] had a half-inhibitory concentration (IC50) below 1 µM.

Molecule `CCCNS(=O)(=O)Nc1cccc(C(=O)c2c[nH]c3ncc(-c4cnn(C)c4)cc23)c1F` [P-0242, [2-fluoro-3-(propylsulfamoylamino)phenyl]-[5-(1-methylpyrazol-4-yl)-1H-pyrrolo[2,3-b]pyridin-3-yl]methanone] showed an IC50 above 1 µM.

`O=C(c1cccc(NS(=O)(=O)N2CCCC2)c1F)c1c[nH]c2ncc(-c3ccc(C4(C(=O)O)CC4)cc3)cc12` [P-0243, 1-[4-[3-[2-fluoro-3-(pyrrolidin-1-ylsulfonylamino)benzoyl]-1H-pyrrolo[2,3-b]pyridin-5-yl]phenyl]cyclopropanecarboxylic acid] displayed a half-maximal inhibitory concentration (IC50) above 1 µM.

Regarding `CC1CCN(S(=O)(=O)Nc2cccc(C(=O)c3c[nH]c4ncc(-c5cnc(C6CC6)nc5)cc34)c2F)C1` (stereo not drawn) [P-0247, N-[3-[5-(2-cyclopropylpyrimidin-5-yl)-1H-pyrrolo[2,3-b]pyridine-3-carbonyl]-2-fluoro-phenyl]-3-methyl-pyrrolidine-1-sulfonamide], the 50% inhibitory concentration (IC50) was below 1 µM.

Take `N#CC1(c2ccc(-c3cnc4[nH]cc(C(=O)c5c(F)ccc(NS(=O)(=O)N6CCCC6)c5F)c4c3)cc2)CC1` [P-0248, N-[3-[5-[4-(1-cyanocyclopropyl)phenyl]-1H-pyrrolo[2,3-b]pyridine-3-carbonyl]-2,4-difluoro-phenyl]pyrrolidine-1-sulfonamide]: the concentration for half-maximal inhibition (IC50) was below 1 µM.

`CN(C1CC1)S(=O)(=O)Nc1cccc(C(=O)c2c[nH]c3ncc(-c4cnc(C5CC5)nc4)cc23)c1F` [P-0249, 3-[3-[[cyclopropyl(methyl)sulfamoyl]amino]-2-fluoro-benzoyl]-5-(2-cyclopropylpyrimidin-5-yl)-1H-pyrrolo[2,3-b]pyridine] returned a 50% inhibitory concentration (IC50) below 1 µM.

Turning to `CCCNS(=O)(=O)Nc1cccc(C(=O)c2c[nH]c3ncc(-c4cnc(C5CC5)nc4)cc23)c1F` [P-0251, [5-(2-cyclopropylpyrimidin-5-yl)-1H-pyrrolo[2,3-b]pyridin-3-yl]-[2-fluoro-3-(propylsulfamoylamino)phenyl]methanone], the IC50 is above 1 µM.

Consider `CN(C1CC1)S(=O)(=O)Nc1ccc(F)c(C(=O)c2c[nH]c3ncc(-c4cnc(C5CC5)nc4)cc23)c1F` [P-0252, 3-[3-[[cyclopropyl(methyl)sulfamoyl]amino]-2,6-difluoro-benzoyl]-5-(2-cyclopropylpyrimidin-5-yl)-1H-pyrrolo[2,3-b]pyridine], for which the IC50 was below 1 µM.

For the molecule `NC(=O)C1(c2ccc(-c3cnc4[nH]cc(C(=O)c5cccc(NS(=O)(=O)N6CCCC6)c5F)c4c3)cc2)CC1` [P-0253, 1-[4-[3-[2-fluoro-3-(pyrrolidin-1-ylsulfonylamino)benzoyl]-1H-pyrrolo[2,3-b]pyridin-5-yl]phenyl]cyclopropanecarboxamide], the IC50 is above 1 µM.

In turn, `CCOc1ncc(-c2cnc3[nH]cc(C(=O)c4c(F)ccc(NS(=O)(=O)N(C)CC)c4F)c3c2)cn1` [P-0256, 5-(2-ethoxypyrimidin-5-yl)-3-[3-[[ethyl(methyl)sulfamoyl]amino]-2,6-difluoro-benzoyl]-1H-pyrrolo[2,3-b]pyridine] gave an IC50 below 1 µM.

Molecule `CCN(C)S(=O)(=O)Nc1ccc(F)c(C(=O)c2c[nH]c3ncc(-c4cnc(N5CCOCC5)nc4)cc23)c1F` [P-0258, 4-[5-[3-[3-[[ethyl(methyl)sulfamoyl]amino]-2,6-difluoro-benzoyl]-1H-pyrrolo[2,3-b]pyridin-5-yl]pyrimidin-2-yl]morpholine] yielded an IC50 below 1 µM.

As for `CCN(C)S(=O)(=O)Nc1ccc(F)c(C(=O)c2c[nH]c3ncc(-c4cccc(N5CCOCC5)c4)cc23)c1F` [P-0259, 4-[3-[3-[3-[[ethyl(methyl)sulfamoyl]amino]-2,6-difluoro-benzoyl]-1H-pyrrolo[2,3-b]pyridin-5-yl]phenyl]morpholine], the IC50 was below 1 µM.

Molecule `CN1CCN(c2ncc(-c3cnc4[nH]cc(C(=O)c5c(F)ccc(NS(=O)(=O)N6CCCC6)c5F)c4c3)cn2)CC1` [P-0260, N-[2,4-difluoro-3-[5-[2-(4-methylpiperazin-1-yl)pyrimidin-5-yl]-1H-pyrrolo[2,3-b]pyridine-3-carbonyl]phenyl]pyrrolidine-1-sulfonamide] gave an IC50 below 1 µM.

As for `O=C(c1c(F)ccc(NS(=O)(=O)N2CCCC2)c1F)c1c[nH]c2ncc(-c3cnc(N4CCNCC4)nc3)cc12` [P-0261, N-[2,4-difluoro-3-[5-(2-piperazin-1-ylpyrimidin-5-yl)-1H-pyrrolo[2,3-b]pyridine-3-carbonyl]phenyl]pyrrolidine-1-sulfonamide], the IC50 was below 1 µM.

`O=C(c1c(F)ccc(NS(=O)(=O)N2CCCC2)c1F)c1c[nH]c2ncc(-c3cnc(N4CCC(O)CC4)nc3)cc12` [P-0262, N-[2,4-difluoro-3-[5-[2-(4-hydroxy-1-piperidyl)pyrimidin-5-yl]-1H-pyrrolo[2,3-b]pyridine-3-carbonyl]phenyl]pyrrolidine-1-sulfonamide]: the IC50 is below 1 µM.

In turn, `CCN(C)S(=O)(=O)Nc1ccc(F)c(C(=O)c2c[nH]c3ncc(-c4cnc(N5CCN(C)CC5)nc4)cc23)c1F` [P-0263, 3-[3-[[ethyl(methyl)sulfamoyl]amino]-2,6-difluoro-benzoyl]-5-[2-(4-methylpiperazin-1-yl)pyrimidin-5-yl]-1H-pyrrolo[2,3-b]pyridine] showed an IC50 below 1 µM.

Turning to `CC(C)(O)c1nc(-c2cnc3[nH]cc(C(=O)c4c(F)ccc(NS(=O)(=O)N5CCCC5)c4F)c3c2)cs1` [P-0265, N-[2,4-difluoro-3-[5-[2-(1-hydroxy-1-methyl-ethyl)thiazol-4-yl]-1H-pyrrolo[2,3-b]pyridine-3-carbonyl]phenyl]pyrrolidine-1-sulfonamide], the IC50 is below 1 µM.

Molecule `CCN(C)S(=O)(=O)Nc1ccc(F)c(C(=O)c2c[nH]c3ncc(-c4cnc(N5CCNCC5)nc4)cc23)c1F` [P-0268, 3-[3-[[ethyl(methyl)sulfamoyl]amino]-2,6-difluoro-benzoyl]-5-(2-piperazin-1-ylpyrimidin-5-yl)-1H-pyrrolo[2,3-b]pyridine] gave an IC50 below 1 µM.

`O=C(c1c(F)ccc(NS(=O)(=O)N2CCCC2)c1F)c1c[nH]c2ncc(-c3cnc(N4CCC4)nc3)cc12` [P-0269, N-[3-[5-[2-(azetidin-1-yl)pyrimidin-5-yl]-1H-pyrrolo[2,3-b]pyridine-3-carbonyl]-2,4-difluoro-phenyl]pyrrolidine-1-sulfonamide] registered an IC50 below 1 µM.

`C[C@@H]1CCN(S(=O)(=O)Nc2cccc(C(=O)c3c[nH]c4ncc(-c5cnc(C6CC6)nc5)cc34)c2F)C1` [P-0271, (3R)—N-[3-[5-(2-cyclopropylpyrimidin-5-yl)-1H-pyrrolo[2,3-b]pyridine-3-carbonyl]-2-fluoro-phenyl]-3-methyl-pyrrolidine-1-sulfonamide] returned a half-inhibitory concentration (IC50) below 1 µM.

Molecule `O=C(c1c(F)ccc(NS(=O)(=O)N2CCCC2)c1F)c1c[nH]c2ncc(-c3ccncc3)cc12` [P-0273, N-[2,4-difluoro-3-[5-(4-pyridyl)-1H-pyrrolo[2,3-b]pyridine-3-carbonyl]phenyl]pyrrolidine-1-sulfonamide] registered a 50% inhibitory concentration (IC50) below 1 µM.
